# Results published in publication PMC9011347, “Small-Molecule Inhibitors Targeting Lipolysis in Human Adipocytes” (Journal of the American Chemical Society, 2022).
# System: HepG2 cells
# Assay: LDH-based cytotoxicity assay
# Format: cell-based, human
# Conditions: 24 h, up to a concentration of 100 μM
# Method: Figure 2 Development and characterization of the human ATGL inhibitor NG-497. (a) Structure and IC50 values of human ATGL inhibitors. (b) Dose-dependent inhibition of human ATGL by respective inhibitors. (c) ATGL activity was determined at the indicated substrate concentrations in the absence and presence of NG-497 (0.5 μM). Ki was determined by nonlinear regression analysis using GraphPad Prism. Lineweaver–Burk analysis of ATGL inhibition is shown in the inset. (d) Toxicity of NG-497 in HepG2 cells was determined after 24 h incubation at indicated concentrations. Cisplatin and DMSO were used as positive and negative controls, respectively. Cytotoxicity was determined using the Roche LDH Kit and calculated as relative LDH release compared to fully lysed cells. (e) Stability of NG-497 was analyzed via ultrahigh-performance liquid chromatography–mass spectrometry (UHPLC-MS) after incubation in human serum for 0 or 3 h at 37 °C. Atglistatin and a chemically related unstable compound were used as controls. […] NG-497 concentrations/well were determined at the indicated time points using UHPLC-MS. […] Statistical significance was determined via t test (*p < 0.05; **p < 0.01; ***p < 0.001) or ANOVA followed by Bonferroni post hoc test (^###p < 0.001). […] The detected 297 lipid species of both groups were analyzed with supervised multivariate analysis OPLS-DA and are shown as a loading plot. […]
compound,measurement,value
CCOc1ccc(-c2cc(OC)cc(C(=O)OC(C)C)n2)cc1 [NG-497],cytotoxicity (relative LDH release),no toxic effects
